IC50 data for one molecule are collected here from patent US6399782B1, “Benzimidazole inhibitors of fructose 1,6-bisphosphatase” (Metabasis Therapeutics, Inc., priority 1997, dated 2002).

The target in this assay is T1, mouse liver FBPase (Mus musculus, UniProt Q9QXD6).
T1 construct: This partially purified fraction was used for enzyme assays; from tissue; host or cells: mouse liver, 45-75% ammonium sulfate fraction
T1 sequence (Q9QXD6 2-338 limits assumed): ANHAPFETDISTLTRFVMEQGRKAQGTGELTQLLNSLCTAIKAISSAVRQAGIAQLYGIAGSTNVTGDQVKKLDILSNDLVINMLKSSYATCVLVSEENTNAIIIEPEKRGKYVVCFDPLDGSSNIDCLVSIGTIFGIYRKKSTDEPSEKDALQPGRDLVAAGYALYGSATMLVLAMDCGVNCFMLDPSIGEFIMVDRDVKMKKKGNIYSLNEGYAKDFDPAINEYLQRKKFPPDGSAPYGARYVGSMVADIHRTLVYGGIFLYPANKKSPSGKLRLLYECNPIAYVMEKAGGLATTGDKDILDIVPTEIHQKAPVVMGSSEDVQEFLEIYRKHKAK
Put plainly: Inhibition of mouse liver FBPase. The format is biochemical. Particulars: partially purified mouse liver fraction. The method, then: Enzymatic activity was measured spectrophotometrically in reactions that coupled the formation of product (fructose 6-phosphate) to the reduction of dimethylthiazoldiphenyltetrazolium bromide (MTT) via NADP and phenazine methosulfate (PMS), using phosphoglucose isomerase and glucose 6-phosphate dehydrogenase as the coupling enzymes. Reaction mixtures (200 μl) were made up in 96-well microtitre plates, and consisted of 50 mM Tris-HCl, pH 7.4, 100 mM KCl, 5 mM EGTA, 2 mM MgCl2, 0.2 mM NADP, 1 mg/ml BSA, 1 mM MTT, 0.6 mM PMS, 1 unit/mL phosphoglucose isomerase, 2 units/mL glucose 6-phosphate dehydrogenase, and 0.150 mM substrate (fructose 1,6-bisphosphate). Inhibitor concentrations were varied from 0.01 μM to 10 μM.
Mouse liver FBPase was obtained by homogenizing freshly isolated mouse liver in 100 mM Tris-HCl buffer, pH 7.4, containing 1 mM EGTA, and 10% glycerol. […] This fraction was redissolved in the homogenization buffer and desalted on a PD-10 gel filtration column (Biorad) eluted with same. This partially purified fraction was used for enzyme assays. Both rat liver and mouse liver FBPase were assayed as described for human liver FBPase.

`Nc1c(F)ccc2c1nc(-c1ccc(P(=O)(O)O)o1)n2CC1CC1` [Compound 12.61, 4-Amino-5-fluoro-1-cyclopropylmethyl-2-(2-phosphono-5-furanyl)benzimidazole] gave an IC50 of over 20 µM.
